Experimental data reported in ChEMBL document CHEMBL3797052 (Eur J Med Chem, 2016).

What was measured:
[1] = Antiproliferative activity against human HCT15 cells assessed as growth inhibition after 48 hrs by sulforhodamine B assay; assay type: functional; settings: HCT-15, 48 h
[2] = test system: T47D; test: Antiproliferative activity against human T47D cells assessed as growth inhibition after 48 hrs by sulforhodamine B assay; assay type: functional; settings: for CC50: read-out: LC50 (the source's name)
[3] = Antiproliferative activity against human Hs 578T cells assessed as growth inhibition after 48 hrs by sulforhodamine B assay; assay type: functional; settings: for CC50: read-out: LC50 (the source's name)
[4] = Antiproliferative activity against human RXF393 cells assessed as growth inhibition after 48 hrs by sulforhodamine B assay; assay type: functional; settings: RXF 393, 48 h; for CC50: read-out: LC50 (the source's name)
[5] = Antiproliferative activity against human TK10 cells assessed as growth inhibition after 48 hrs by sulforhodamine B assay; assay type: functional; settings: TK-10, 48 h; for CC50: read-out: LC50 (the source's name)
[6] = test system: ACHN; test: Antiproliferative activity against human ACHN cells assessed as growth inhibition after 48 hrs by sulforhodamine B assay; assay type: functional
[7] = Antiproliferative activity against human BT549 cells assessed as growth inhibition after 48 hrs by sulforhodamine B assay; assay type: functional; settings: BT-549, 48 h; for CC50: read-out: LC50 (the source's name)
[8] = Antiproliferative activity against human NCI-ADR-RES cells assessed as growth inhibition after 48 hrs by sulforhodamine B assay; assay type: functional
[9] = test system: NCI-H23; test: Antiproliferative activity against human NCI-H23 cells assessed as growth inhibition after 48 hrs by sulforhodamine B assay; assay type: functional; settings: NCI-H23, 48 h
[10] = Antiproliferative activity against human IGROV1 cells assessed as cell growth at 10^-6 M after 48 hrs by sulforhodamine B assay; assay type: functional; settings: IGROV-1, 48 h, read-out: Activity
[11] = Antiproliferative activity against human SF268 cells assessed as cell growth at 10^-4 M after 48 hrs by sulforhodamine B assay; assay type: functional; settings: SF-268, 48 h, read-out: Activity
[12] = test system: SK-MEL-5; test: Antiproliferative activity against human SK-MEL-5 cells assessed as cell growth at 10^-7 M after 48 hrs by sulforhodamine B assay; assay type: functional; settings: SK-MEL-5, 48 h, read-out: Activity
[13] = test system: NCI-H460; test: Antiproliferative activity against human NCI-H460 cells assessed as cell growth at 10^-4 M after 48 hrs by sulforhodamine B assay; assay type: functional; settings: NCI-H460, 48 h, read-out: Activity
[14] = Antiproliferative activity against human HCC2998 cells assessed as cell growth at 10^-7 M after 48 hrs by sulforhodamine B assay; assay type: functional; settings: HCC 2998, 48 h, read-out: Activity
[15] = test system: EKVX; test: Antiproliferative activity against human EKVX cells assessed as cell growth at 10^-4 M after 48 hrs by sulforhodamine B assay; assay type: functional; settings: read-out: Activity
[16] = Antiproliferative activity against human DU145 cells assessed as cell growth at 10^-7 M after 48 hrs by sulforhodamine B assay; assay type: functional; settings: DU-145, 48 h, read-out: Activity
[17] = Antiproliferative activity against human SW620 cells assessed as cell growth at […] M after 48 hrs by sulforhodamine B assay; assay type: functional; settings: SW-620, 48 h, read-out: Activity
[18] = Antiproliferative activity against human UACC257 cells assessed as cell growth at 10^-4 M after 48 hrs by sulforhodamine B assay; assay type: functional; settings: UACC-257, 48 h, read-out: Activity
[19] = Antiproliferative activity against human RPMI8226 cells assessed as cell growth at 10^-7 M after 48 hrs by sulforhodamine B assay; assay type: functional; settings: RPMI-8226, 48 h, read-out: Activity
[20] = test system: SK-MEL-28; test: Antiproliferative activity against human SK-MEL-28 cells assessed as cell growth at 10^-8 M after 48 hrs by sulforhodamine B assay; assay type: functional; settings: SK-MEL-28, 48 h, read-out: Activity
[21] = Antiproliferative activity against human SNB75 cells assessed as cell growth at 10^-7 M after 48 hrs by sulforhodamine B assay; assay type: functional; settings: SNB-75, 48 h, read-out: Activity
[22] = Antiproliferative activity against human UACC62 cells assessed as cell growth at 10^-7 M after 48 hrs by sulforhodamine B assay; assay type: functional; settings: UACC-62, 48 h, read-out: Activity
[23] = test system: Malme-3M; test: Antiproliferative activity against human MALME-3M cells assessed as cell growth at 10^-4 M after 48 hrs by sulforhodamine B assay; assay type: functional; settings: read-out: Activity
[24] = Antiproliferative activity against human SNB75 cells assessed as cell growth at 10^-6 M after 48 hrs by sulforhodamine B assay; assay type: functional; settings: SNB-75, 48 h, read-out: Activity
[25] = Antiproliferative activity against human UACC62 cells assessed as cell growth at 10^-4 M after 48 hrs by sulforhodamine B assay; assay type: functional; settings: UACC-62, 48 h, read-out: Activity
[26] = Antiproliferative activity against human UACC62 cells assessed as cell growth at 10^-8 M after 48 hrs by sulforhodamine B assay; assay type: functional; settings: UACC-62, 48 h, read-out: Activity
[27] = test system: CCRF-CEM; test: Antiproliferative activity against human CCRF-CEM cells assessed as cell growth at 10^-8 M after 48 hrs by sulforhodamine B assay; assay type: functional; settings: read-out: Activity
[28] = molecular target: Serine/threonine-protein kinase B-raf (Homo sapiens, UniProt P15056, V600E); test: Inhibition of BRAF V600E mutant (unknown origin) measured after 40 mins by scintillation counting
Sequence of Serine/threonine-protein kinase B-raf (P15056 2-766 V600E limits assumed): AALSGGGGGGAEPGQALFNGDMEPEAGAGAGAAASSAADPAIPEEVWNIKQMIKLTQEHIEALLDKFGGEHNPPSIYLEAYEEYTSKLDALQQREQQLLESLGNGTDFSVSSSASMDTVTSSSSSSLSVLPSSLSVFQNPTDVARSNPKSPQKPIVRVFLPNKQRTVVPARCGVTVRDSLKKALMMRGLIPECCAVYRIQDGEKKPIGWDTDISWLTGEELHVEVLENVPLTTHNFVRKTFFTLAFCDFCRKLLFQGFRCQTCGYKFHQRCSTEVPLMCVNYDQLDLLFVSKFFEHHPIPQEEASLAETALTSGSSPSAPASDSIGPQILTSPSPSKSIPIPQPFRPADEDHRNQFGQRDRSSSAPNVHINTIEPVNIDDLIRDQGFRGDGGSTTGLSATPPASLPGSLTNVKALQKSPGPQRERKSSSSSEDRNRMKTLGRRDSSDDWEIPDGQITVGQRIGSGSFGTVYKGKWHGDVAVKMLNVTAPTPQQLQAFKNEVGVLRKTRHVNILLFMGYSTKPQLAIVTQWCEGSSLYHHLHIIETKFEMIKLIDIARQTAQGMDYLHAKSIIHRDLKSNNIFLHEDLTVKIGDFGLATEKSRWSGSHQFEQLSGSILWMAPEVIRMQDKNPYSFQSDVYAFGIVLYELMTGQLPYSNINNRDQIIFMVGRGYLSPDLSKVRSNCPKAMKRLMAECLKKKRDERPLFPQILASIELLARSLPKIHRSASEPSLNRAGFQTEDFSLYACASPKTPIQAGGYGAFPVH

[29] = test system: SK-MEL-28; test: Antiproliferative activity against human SK-MEL-28 cells assessed as cell growth at 10^-6 M after 48 hrs by sulforhodamine B assay; assay type: functional; settings: SK-MEL-28, 48 h, read-out: Activity
[30] = Antiproliferative activity against human OVCAR5 cells assessed as cell growth at 10^-8 M after 48 hrs by sulforhodamine B assay; assay type: functional; settings: OVCAR-5, 48 h, read-out: Activity
[31] = test system: NCI-H322M; test: Antiproliferative activity against human NCI-H322M cells assessed as cell growth at 10^-6 M after 48 hrs by sulforhodamine B assay; assay type: functional; settings: read-out: Activity
[32] = test system: A498; test: Antiproliferative activity against human A498 cells assessed as cell growth at 10^-8 M after 48 hrs by sulforhodamine B assay; assay type: functional; settings: A498, 48 h, read-out: Activity
[33] = test system: U-251; test: Antiproliferative activity against human U251 cells assessed as cell growth at 10^-6 M after 48 hrs by sulforhodamine B assay; assay type: functional; settings: U-251, 48 h, read-out: Activity
[34] = Antiproliferative activity against human Caki1 cells assessed as cell growth at 10^-4 M after 48 hrs by sulforhodamine B assay; assay type: functional; settings: CAKI-1, 48 h, read-out: Activity
[35] = test system: KM12; test: Antiproliferative activity against human KM12 cells assessed as cell growth at 10^-8 M after 48 hrs by sulforhodamine B assay; assay type: functional; settings: KM12, 48 h, read-out: Activity
[36] = Antiproliferative activity against human TK10 cells assessed as cell growth at 10^-6 M after 48 hrs by sulforhodamine B assay; assay type: functional; settings: TK-10, 48 h, read-out: Activity
[37] = Antiproliferative activity against human TK10 cells assessed as cell growth at 10^-8 M after 48 hrs by sulforhodamine B assay; assay type: functional; settings: TK-10, 48 h, read-out: Activity

CNC(=O)c1cc(Oc2ccc(NC(=O)Nc3ccc(Cl)c(C(F)(F)F)c3)cc2)ccn1 [SORAFENIB]
GI50 [1]: 2.51 µM
TGI [1]: 12.6 µM
TGI [2]: 7.94 µM
CC50 [2]: 31.6 µM
TGI [3]: 7.94 µM
CC50 [3]: 100 µM
GI50 [4]: 3.16 µM
TGI [4]: 10 µM
CC50 [4]: 39.8 µM
GI50 [5]: 3.98 µM
TGI [5]: 10 µM
CC50 [5]: 50.1 µM
GI50 [6]: 2.51 µM
TGI [6]: 12.6 µM
GI50 [7]: 3.16 µM
TGI [7]: 5.01 µM
CC50 [7]: 15.8 µM
GI50 [8]: 2.51 µM
TGI [8]: 7.94 µM
GI50 [9]: 2 µM
TGI [9]: 5.01 µM

CNC(=O)c1cc(Oc2ccc3nc(NC(=O)Nc4cc(C(F)(F)F)cc(C(F)(F)F)c4)sc3c2)ccn1
growth at 1 µM [10]: 62%
growth at 100 µM [11]: -91%
GI50 [1]: 1.5 µM
LC50 [1]: 7.32 µM
TGI [1]: 3.31 µM
growth at 0.1 µM [12]: 99%
growth at 100 µM [13]: -71%
growth at 0.1 µM [14]: 105%
growth at 100 µM [15]: -56%
growth at 0.1 µM [16]: 97%
growth at 0.01 µM [17]: 102%
growth at 100 µM [18]: -94%
GI50 [2]: 0.479 µM
TGI [2]: 2.3 µM
CC50 [2]: 8.47 µM
growth at 0.1 µM [19]: 108%
GI50 [3]: 1.65 µM
TGI [3]: 4.84 µM
CC50 [3]: > 100 µM
growth at 0.01 µM [20]: 93%
growth at 0.1 µM [21]: 82%
growth at 0.1 µM [22]: 93%
growth at 100 µM [23]: -76%
growth at 1 µM [24]: 50%
growth at 100 µM [25]: -73%
GI50 [4]: 1.25 µM
TGI [4]: 2.99 µM
CC50 [4]: 7.16 µM
growth at 0.01 µM [26]: 93%
growth at 0.01 µM [27]: 111%
GI50 [5]: 1.67 µM
TGI [5]: 3.35 µM
CC50 [5]: 6.72 µM
IC50 [28]: 1.23 µM
growth at 1 µM [29]: 66%
growth at 0.01 µM [30]: 94%
GI50 [6]: 0.542 µM
LC50 [6]: 5.7 µM
TGI [6]: 1.98 µM
growth at 1 µM [31]: 73%
GI50 [7]: 1.34 µM
TGI [7]: 3.07 µM
CC50 [7]: 7.05 µM
growth at 0.01 µM [32]: 100%
growth at 1 µM [33]: 51%
growth at 100 µM [34]: -83%
growth at 0.01 µM [35]: 100%
GI50 [8]: 1.27 µM
TGI [8]: 3.19 µM
growth at 1 µM [36]: 87%
GI50 [9]: 0.573 µM
LC50 [9]: 7.99 µM
TGI [9]: 2.38 µM
growth at 0.01 µM [37]: 95%
